What all share (test): NCI-60 cell line screen, 48 h
Test [1] relates to HT-29.
Test [2] has as its system M14.
Test [3] concerns NCI/ADR-RES.
In test [4] the test system is SNB-75.
Test [5] has as its system COLO 205.
Test [6] deals with HOP-92.
The subject of test [7] is HL-60.
Test [8] deals with MDA-MB-231.
Test [9] has as its system OVCAR-3.
Test [10] relates to MDA-MB-435.
The subject of test [11] is U-251.
Test [12] relates to Malme-3M.
Test [13] has as its system SF-295.
Test [14] concerns SF-268.
Test [15] deals with A498.
Test [16] relates to UACC-62.
The test system of test [17] is EKVX.
The test system of test [18] is IGROV-1.
Test [19] relates to BT-549.
Test [20] has as its system ACHN.

This is an account of results in ChEMBL document CHEMBL1201862, “PubChem BioAssay data set” (2004).

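Dose response: 5 concentrations. Exposure: 48 h. Format: 96-well plates. Endpoint: linear interpolation; highest concentration if not reached. GI50 = concentration required for 50% inhibition of growth.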 The source made the active and inactive calls. No stated cut-off is given here; in the data, active = GI50 up to about 1.1 µM and inactive = higher.

With `O=c1cc(O)c2ccccc2o1` [4-HYDROXYCOUMARINS], the GI50 in [1], in [2], in test [3], in test [4], in [5] and in [6] was > 100 µM (inactive) throughout. The GI50 in [7], in [8], in test [9], in test [10], in [11] and in test [12] was > 100 µM (inactive) throughout. Further, the GI50 in [13], in test [14], in [15], in [16], in [17] and in test [18] was > 100 µM (inactive) throughout. The GI50 in [19] and in test [20] was > 100 µM (inactive) in each case.
For the compound `CC1=C(C)SC(=C2Sc3[n-]c(=O)[nH]c(=O)c3S2)S1.CCCC[N+](CCCC)(CCCC)CCCC`, the GI50 in [1] was > 100 µM (inactive); in test [2] it was 31.3 µM (inactive); in test [3] it was 95.9 µM (inactive); in [4], > 100 µM (inactive); in test [5] it was > 100 µM (inactive); in test [6], > 100 µM (inactive). For the same compound, the GI50 in test [7] is < 0.01 µM (active); in test [8], > 100 µM (inactive); in [9], 46.1 µM (inactive); in test [10], 31.6 µM (inactive); in test [11], > 100 µM (inactive); in test [12] it was 20.6 µM (inactive). For the same compound, the GI50 was > 100 µM (inactive) in test [13]; > 100 µM (inactive) in test [14]; > 100 µM (inactive) in test [15]; 27.2 µM (inactive) in test [16]; > 100 µM (inactive) in test [17]; > 100 µM (inactive) in [18]. Moreover, the GI50 in [19] and in [20] was > 100 µM (inactive) in each case.
In the case of `Cc1ccc(C(=O)/C=C(\O)C(=O)NN=C(c2ccccc2)c2ccccc2)cc1`, the GI50 in test [1] was > 100 µM (inactive); in [2] it was > 100 µM (inactive); in [3], 30.5 µM (inactive); in [4], 82.4 µM (inactive); in [5], 40.4 µM (inactive); in [6], 28 µM (inactive). Further, the GI50 in test [7] was 13.9 µM (inactive); in test [8], > 100 µM (inactive); in test [9], > 100 µM (inactive); in test [10], > 100 µM (inactive); in test [11] it was 46.2 µM (inactive); in [12], > 100 µM (inactive). Also, the GI50 in [13] is 66.8 µM (inactive); in [14], > 100 µM (inactive); in [15], > 100 µM (inactive); in test [16], 68.9 µM (inactive); in test [17], > 100 µM (inactive); in [18], 62.7 µM (inactive). Moreover, the GI50 in test [19] is 47.9 µM (inactive); in test [20] it was 45 µM (inactive).
For `C=CC1=C(C)c2cc3[nH]c(c4c5nc(cc6[nH]c(cc1n2)c(C=O)c6CC)C(C)=C5C(=O)[C@@H]4C(=O)OC)[C@@H](CCC(=O)O)[C@@H]3C`, the GI50 was > 100 µM (inactive) in test [1]; > 100 µM (inactive) in test [2]; > 100 µM (inactive) in test [3]; 2.54 µM (inactive) in [4]; 95.7 µM (inactive) in test [5]; > 100 µM (inactive) in [6]. Also, the GI50 in test [7] is 42.6 µM (inactive); in [8] it was 28 µM (inactive); in [10], > 100 µM (inactive); in test [11] it was 9.25 µM (inactive); in test [12], > 100 µM (inactive); in [13], 45 µM (inactive). For the same compound, the GI50 is 24.4 µM (inactive) in test [14]; > 100 µM (inactive) in test [15]; > 100 µM (inactive) in test [16]; > 100 µM (inactive) in [17]; 63.5 µM (inactive) in test [18]; > 100 µM (inactive) in test [19]. Moreover, the GI50 in test [20] was 46 µM (inactive).
For `COCC1OC(N2C(=O)NC(=O)[C@@H]3C=C4CCCCC4=C[C@@H]32)C(OC)C1OC` (stereo partly specified), the GI50 in test [1] was > 100 µM (inactive); in test [2], > 100 µM (inactive); in [3] it was > 100 µM (inactive); in [4] it was > 100 µM (inactive); in test [6], 75 µM (inactive); in test [7] it was 51.6 µM (inactive). Moreover, the GI50 in test [8], in test [9], in test [10], in test [11], in test [12] and in test [13] was > 100 µM (inactive) in each case. Also, the GI50 in test [14], in [15], in test [16], in test [17], in test [18] and in test [19] was > 100 µM (inactive) throughout. In test [20], the GI50 was > 100 µM (inactive).
For the compound `COc1cccc(CCCNC(=O)Cc2cc(OC)c(OC)cc2CO)c1`, the GI50 in [1], in test [2], in test [3], in test [4], in test [5] and in test [6] was > 100 µM (inactive) in each case. The GI50 in test [7], in test [8], in [9], in [10], in [11] and in test [12] was > 100 µM (inactive) throughout. Besides, the GI50 in test [15], in test [16], in test [17], in test [18], in test [19] and in test [20] was > 100 µM (inactive) each time.
`CSC1=N/C(=C\c2c[nH]c3ccccc23)C(=O)N1`: the GI50 was 31.6 µM (inactive) in [1]; 73.6 µM (inactive) in test [2]; 85.7 µM (inactive) in test [3]; 27.7 µM (inactive) in test [4]; 63 µM (inactive) in test [5]; > 100 µM (inactive) in test [6]. Further, the GI50 was 18.3 µM (inactive) in test [7]; 52.6 µM (inactive) in test [8]; 85.3 µM (inactive) in test [9]; 55.2 µM (inactive) in test [10]; 56.4 µM (inactive) in [11]; 36.1 µM (inactive) in [12]. For the same compound, the GI50 is 71 µM (inactive) in test [14]; 38.1 µM (inactive) in test [15]; 92.9 µM (inactive) in test [16]; 67.6 µM (inactive) in test [18]; > 100 µM (inactive) in [19]; 44.4 µM (inactive) in test [20].
Consider `CS(=O)(=O)Nc1ccc2ccccc2c1-c1c(NS(C)(=O)=O)ccc2ccccc12`, for which the GI50 in [1] was > 25 µM (inactive); in test [2] it was > 25 µM (inactive); in [3], > 25 µM (inactive); in test [4], > 19.1 µM (inactive); in [5] it was > 25 µM (inactive); in test [6] it was > 25 µM (inactive). For the same compound, the GI50 in test [7], in [8], in [9], in test [10], in test [11] and in [12] was > 25 µM (inactive) each time. For the same compound, the GI50 in test [13], in [14], in test [15], in test [17], in test [18] and in [19] was > 25 µM (inactive) in each case. Also, the GI50 in [20] was 0.982 µM (active).
Turning to `CC(C)(C)[C@H]1NC(=O)CN1C(=O)OCc1ccccc1`, the GI50 is > 100 µM (inactive) in [1]; > 100 µM (inactive) in test [2]; > 100 µM (inactive) in test [3]; > 100 µM (inactive) in [4]; > 100 µM (inactive) in [5]; 5.12 µM (inactive) in test [6]. Further, the GI50 in [7] was > 100 µM (inactive); in [8] it was 35.5 µM (inactive); in test [10] it was > 100 µM (inactive); in [11], 82 µM (inactive); in test [12], > 100 µM (inactive); in [13], 45.6 µM (inactive). For the same compound, the GI50 is 8.07 µM (inactive) in test [14]; 10.7 µM (inactive) in test [15]; > 100 µM (inactive) in test [16]; > 100 µM (inactive) in [17]; > 100 µM (inactive) in [18]; > 100 µM (inactive) in test [19]. The GI50 in [20] is 82.2 µM (inactive).
In the case of `COC(=O)CCC(C)[C@H]1CCC2C3C(C[C@H](OC(C)=O)[C@@]21C)[C@@]1(C)CCC2(C[C@H]1C[C@H]3OC(C)=O)OOC1(CCCC1)OO2` (stereo partly specified), the GI50 in [1] is 34.4 µM (inactive); in test [2], > 100 µM (inactive); in test [3], 84.5 µM (inactive); in test [4], 96.4 µM (inactive); in test [5], 30.4 µM (inactive); in [6], 9.62 µM (inactive). In addition, the GI50 is 5.02 µM (inactive) in test [7]; 43.3 µM (inactive) in [8]; 5.56 µM (inactive) in [9]; 29.9 µM (inactive) in [10]; 8.93 µM (inactive) in test [11]; > 100 µM (inactive) in test [12]. In addition, the GI50 in test [13] was 83.6 µM (inactive); in test [14], 25.6 µM (inactive); in [15] it was > 100 µM (inactive); in test [17], 11.1 µM (inactive); in test [18] it was 5.6 µM (inactive); in [19], 46 µM (inactive). Also, the GI50 in test [20] was 10.4 µM (inactive).
